Activity calls are given as the source filed them.
What was measured:
[1] = molecular target: T1, Voltage-gated N-type calcium channel alpha-1B subunit/Amyloid beta A4 precursor protein-binding family A member 1 (Homo sapiens, UniProt Q00975+Q02410); type: protein assay
Beta-lactamase [2] = molecular target: Beta-lactamase (Pseudomonas aeruginosa, UniProt Q79MP6);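 also: biochemical dose-response test of metallo-beta-lactamase enzyme inhibition, read out by epi-absorbance; purified recombinant IMP-1 metallo-beta-lactamase with nitrocefin as substrate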
Chain of Beta-lactamase (Pseudomonas aeruginosa, UniProt Q79MP6) (Q79MP6 whole entry): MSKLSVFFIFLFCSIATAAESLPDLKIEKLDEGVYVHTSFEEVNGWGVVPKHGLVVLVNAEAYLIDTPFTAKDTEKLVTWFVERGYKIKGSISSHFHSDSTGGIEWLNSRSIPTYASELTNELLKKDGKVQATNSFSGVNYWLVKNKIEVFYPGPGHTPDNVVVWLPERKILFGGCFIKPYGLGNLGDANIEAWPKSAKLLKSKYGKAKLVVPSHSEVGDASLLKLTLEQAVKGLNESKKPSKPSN

Bcl-2-related protein A1 [3] = molecular target: T2, Bcl-2-related protein A1 (Mus musculus, UniProt Q07440); assay: displacement of Bid BH3 peptide from Bfl-1 – biochemical, fluorescence polarization, FITC-Bid, mouse, primary screen (AID 432)
T2 sequence (Q07440 whole entry): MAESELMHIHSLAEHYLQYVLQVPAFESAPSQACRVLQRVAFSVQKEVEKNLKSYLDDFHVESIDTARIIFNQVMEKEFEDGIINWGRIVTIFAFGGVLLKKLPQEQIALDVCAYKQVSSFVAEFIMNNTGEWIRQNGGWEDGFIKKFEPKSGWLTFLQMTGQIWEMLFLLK

Beta-lactamase [4] = molecular target: Beta-lactamase (Salmonella choleraesuis (strain SC-B67), UniProt Q5J463)
[5] = molecular target: Mitogen-activated protein kinase 10 (Homo sapiens, UniProt P53779); assay: Dose response biochemical screening assay for inhibitors of c-Jun N-Terminal Kinase 3 (JNK3). [Related pubchem assays: 746 ]
Chain of Mitogen-activated protein kinase 10 (P53779 whole entry): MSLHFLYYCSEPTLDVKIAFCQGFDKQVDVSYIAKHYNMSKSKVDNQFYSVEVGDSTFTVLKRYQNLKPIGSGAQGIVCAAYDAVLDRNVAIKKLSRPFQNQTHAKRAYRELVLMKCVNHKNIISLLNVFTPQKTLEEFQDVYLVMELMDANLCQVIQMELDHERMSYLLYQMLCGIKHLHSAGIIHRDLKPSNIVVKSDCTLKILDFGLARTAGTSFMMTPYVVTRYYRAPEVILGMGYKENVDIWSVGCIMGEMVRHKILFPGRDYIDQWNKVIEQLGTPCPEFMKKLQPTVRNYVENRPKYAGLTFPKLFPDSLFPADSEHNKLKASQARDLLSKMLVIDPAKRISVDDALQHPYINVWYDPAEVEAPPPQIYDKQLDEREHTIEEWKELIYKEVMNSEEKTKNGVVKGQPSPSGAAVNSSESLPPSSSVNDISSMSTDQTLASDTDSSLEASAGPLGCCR

[6] = molecular target: T1, Voltage-gated N-type calcium channel alpha-1B subunit/Amyloid beta A4 precursor protein-binding family A member 1; type: protein assay; remark: listed apart in the source
[7] = molecular target: Dual specificity protein phosphatase 6 (Rattus norvegicus, UniProt Q64346); assay: inhibition of rat DUSP6 enzyme activity – biochemical, in vitro, primary screen (AID 425)
Bcl-2-related protein A1 [8] = molecular target: T2, Bcl-2-related protein A1; assay: small-molecule antagonists of Bfl-1/BH3 interaction – biochemical, TR-FRET, mouse Bfl-1, confirmation (AID 621);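 also: TR-FRET binding of GST-Bfl-1 to FITC-labelled Bid peptide via terbium antibody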
Galanin receptor type 2 = Galanin receptor type 2 (Homo sapiens, UniProt O43603); assay: Dose Response cell-based high-throughput screening assay to identify antagonists of galanin receptor 2 (GALR2). [Related pubchem assays: 828, 866 ]; type: functional
[9] = molecular target: T3, Serine/threonine-protein phosphatase (Candida dubliniensis (strain CD36 / CBS 7987 / NCPF 3949 / NRRLY-17841) (Yeast), UniProt B9W6M3); assay: blockers of CaCl2-induced CDRE-lacZ signaling – S. cerevisiae, luminescence, secondary, dose response (AID 2388); type: functional, cell-based;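 also: yeast reporter cells carrying a calcineurin-responsive lacZ construct stimulated with calcium chloride; luminescent beta-galactosidase reporter signal in whole cells rather than isolated phosphatase activity; potency for inhibition where a drop in reporter signal means calcineurin blockade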
T3 sequence (B9W6M3 whole entry): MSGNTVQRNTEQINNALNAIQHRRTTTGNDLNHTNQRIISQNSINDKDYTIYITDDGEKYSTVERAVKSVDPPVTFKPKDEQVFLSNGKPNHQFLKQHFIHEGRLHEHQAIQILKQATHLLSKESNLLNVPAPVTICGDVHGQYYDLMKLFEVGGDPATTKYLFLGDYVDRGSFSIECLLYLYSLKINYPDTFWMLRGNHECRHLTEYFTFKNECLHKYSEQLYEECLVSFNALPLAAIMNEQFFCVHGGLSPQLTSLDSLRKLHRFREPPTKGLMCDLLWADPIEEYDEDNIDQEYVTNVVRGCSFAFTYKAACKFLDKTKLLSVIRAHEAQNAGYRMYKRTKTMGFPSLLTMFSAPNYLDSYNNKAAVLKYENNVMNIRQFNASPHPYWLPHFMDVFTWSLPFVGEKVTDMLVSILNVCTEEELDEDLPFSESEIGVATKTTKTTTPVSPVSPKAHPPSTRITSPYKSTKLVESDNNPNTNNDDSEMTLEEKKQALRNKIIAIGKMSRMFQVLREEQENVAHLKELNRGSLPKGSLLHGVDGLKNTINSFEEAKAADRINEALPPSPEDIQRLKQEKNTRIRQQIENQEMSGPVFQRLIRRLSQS

[10] = NIH-3T3 fibroblast cytotoxicity, dose response, cytotoxicity control, cell-based, fluorescence, Alamar Blue, secondary assay (AID 2327); type: functional;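 also: NIH-3T3 mouse fibroblasts cultured with fluconazole at 8 µg/mL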
Protein Wnt-3a = Protein Wnt-3a (Mus musculus, UniProt P27467); assay: antagonism of Wnt3a pathway luciferase reporter – Wnt-LIGHT cells, luminescence, selectivity assay for Gli-SUFU antagonist project, dose response (AID 651570); type: functional; conditions: read-out: IC50_Mean;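 also: Wnt-LIGHT reporter cells stimulated with conditioned medium from Wnt3a-producing cells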
Chain of Protein Wnt-3a (P27467 whole entry): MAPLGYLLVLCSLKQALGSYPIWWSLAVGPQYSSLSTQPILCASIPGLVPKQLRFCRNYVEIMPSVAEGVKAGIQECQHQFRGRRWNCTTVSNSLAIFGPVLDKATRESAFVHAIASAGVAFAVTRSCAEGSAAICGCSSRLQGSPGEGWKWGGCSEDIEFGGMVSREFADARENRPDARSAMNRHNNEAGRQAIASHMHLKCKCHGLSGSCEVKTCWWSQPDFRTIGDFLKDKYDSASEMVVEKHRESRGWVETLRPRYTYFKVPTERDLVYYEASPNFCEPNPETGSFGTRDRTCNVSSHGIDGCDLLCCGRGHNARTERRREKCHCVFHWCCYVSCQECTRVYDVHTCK

INS1 = assay: INS-1E survival protection against cytokine death – cell-based, luminescence, retest, dose response (AID 449756); type: functional; conditions: Rattus norvegicus;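 also: cell death triggered by IL-1 beta plus TNF-alpha plus IFN-gamma mixture; protective hits raise ATP signal compared with cytokine alone wells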
[11] = molecular target: ATP-dependent molecular chaperone HSP82 (Candida albicans (strain WO-1) (Yeast), UniProt C4YTQ8); assay: steroid-induced GRE reporter decrease in yeast – S. cerevisiae, luminescence, Hsp90 inhibitor project, dose response (AID 2400); type: functional, cell-based;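 also: beta-galactosidase luminescence from glucocorticoid response element reporter as proxy for Hsp90 function; inhibitor potency where signal loss means Hsp90 inhibition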
[12] = fluconazole-exposed Candida albicans growth modulators – fluorescence, retest, confirmation (AID 2467); type: functional, cell-based
Aspartyl aminopeptidase = Aspartyl aminopeptidase (Plasmodium falciparum 3D7, UniProt Q8I2J3); assay: Counterscreen for inhibitors of M1 and M17 aminopeptidases: QFRET-based biochemical high throughput dose response assay for inhibitors of the Plasmodium falciparum M18 Aspartyl Aminopeptidase (PFM18AAP). [Related PubChem assays: 1619 (Screening assay (M17LAP inhibitors).), 1445 (Screening assay (M1AAP inhibitors).)]
Chain of Aspartyl aminopeptidase (Q8I2J3 whole entry): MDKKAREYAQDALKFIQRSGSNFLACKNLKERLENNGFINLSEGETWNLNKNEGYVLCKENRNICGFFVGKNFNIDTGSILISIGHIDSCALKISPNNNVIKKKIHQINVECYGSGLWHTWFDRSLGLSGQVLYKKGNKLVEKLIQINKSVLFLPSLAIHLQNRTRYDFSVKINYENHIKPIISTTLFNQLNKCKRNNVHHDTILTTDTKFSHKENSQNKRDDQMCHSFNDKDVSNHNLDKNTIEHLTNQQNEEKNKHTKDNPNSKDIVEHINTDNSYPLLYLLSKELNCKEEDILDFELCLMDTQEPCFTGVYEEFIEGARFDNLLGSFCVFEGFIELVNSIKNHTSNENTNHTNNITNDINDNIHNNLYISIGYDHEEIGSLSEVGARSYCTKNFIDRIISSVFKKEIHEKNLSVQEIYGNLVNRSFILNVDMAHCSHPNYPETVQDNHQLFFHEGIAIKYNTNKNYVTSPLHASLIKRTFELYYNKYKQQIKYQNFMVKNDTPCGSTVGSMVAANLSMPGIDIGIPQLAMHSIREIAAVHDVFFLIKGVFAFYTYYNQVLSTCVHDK

Procathepsin L = Procathepsin L (Homo sapiens, UniProt P07711); assay: CTSL1 protease inhibition – biochemical, QFRET, 1536-well, counter-screen for M1/M17 aminopeptidase inhibitor project, dose response (AID 2214)
Leucine aminopeptidase = molecular target: T4, Leucine aminopeptidase (Plasmodium falciparum 3D7, UniProt Q8IL11); assay: P. falciparum M17LAP inhibitors, primary screen, biochemical, fluorogenic H-Leu-NHMec substrate, 1536-well (AID 1619); type: functional
T4 sequence (Q8IL11 whole entry): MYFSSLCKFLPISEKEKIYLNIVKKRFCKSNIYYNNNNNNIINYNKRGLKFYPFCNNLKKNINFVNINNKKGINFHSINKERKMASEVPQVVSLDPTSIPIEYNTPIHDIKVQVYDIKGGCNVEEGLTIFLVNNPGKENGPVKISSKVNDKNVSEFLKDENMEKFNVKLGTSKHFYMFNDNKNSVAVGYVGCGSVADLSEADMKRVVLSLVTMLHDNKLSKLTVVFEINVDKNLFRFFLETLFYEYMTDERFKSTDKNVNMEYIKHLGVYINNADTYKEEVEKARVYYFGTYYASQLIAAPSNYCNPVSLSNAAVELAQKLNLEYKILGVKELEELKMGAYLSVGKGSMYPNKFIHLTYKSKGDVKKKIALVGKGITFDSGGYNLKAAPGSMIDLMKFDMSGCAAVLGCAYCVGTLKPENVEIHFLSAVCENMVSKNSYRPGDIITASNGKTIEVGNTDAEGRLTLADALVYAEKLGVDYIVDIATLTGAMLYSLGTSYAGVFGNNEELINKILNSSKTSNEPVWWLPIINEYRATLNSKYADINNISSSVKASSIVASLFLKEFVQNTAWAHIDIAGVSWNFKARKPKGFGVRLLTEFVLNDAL

[13] = Luminescence-based dose response cell-based high throughput screening assay for cytotoxic compounds using the IEC-6 intestinal epithelial cell line. [Related pubchem assays: 1858 (Summary AID.), 1825 (Counterscreen.), 1907 (Confirmation screen.)]; type: functional
BJ [14] = assay: cells; type: functional, cell-based; conditions: Homo sapiens
[15] = luciferase reporter signal suppression in cells – H4 neuroglioma cells, luminescence, dose response (AID 1990); type: functional, cell-based
HEK293 [16] = assay: inhibition of NOD1-driven NF-kB reporter – cell-based, luminescence, uHTS, primary screen (AID 1578); type: functional; conditions: Homo sapiens
[17] = DRD fibroblast viability loss – cell-based, non-viral oncogenic, luminescence, dose response (AID 1934); type: functional; conditions: Homo sapiens
HEK293 [18] = assay: NOD2 signaling inhibitors in MDP-stimulated cells, cell-based, uHTS, luminescence (AID 2001); type: functional; conditions: Homo sapiens
BJ [19] = assay: BJ-TERT fibroblast viability loss – cell-based, RAS-independent, luminescence, dose response (AID 1933); type: functional; conditions: Homo sapiens
BJ [20] = assay: BJ-TERT-LT-ST fibroblast viability loss – cell-based, RAS-independent, luminescence, dose response (AID 1935); type: functional; conditions: Homo sapiens;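 also: BJ fibroblasts immortalized with TERT plus LT and ST oncogenes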
HEK293 [21] = assay: cells; type: functional, cell-based; conditions: Homo sapiens
HT-1080 = assay: HT1080 cell viability loss – fluorescence readout (AID 620); type: functional, cell-based; conditions: Homo sapiens
HEK293 [22] = assay: cells; type: functional, cell-based; conditions: Homo sapiens; remark: listed apart in the source
[23] = molecular target: Luciferin 4-monooxygenase (Photinus pyralis, UniProt P08659); assay: Counter Screen for Luciferase-based Assay Positives. [Related pubchem assays: 620, 618, 411 ]
[24] = molecular target: T5, Lysine-specific demethylase 4C (Homo sapiens, UniProt Q9H3R0); assay: inhibition of JMJD2C H3K9me3 demethylation – biochemical, DELFIA europium, cherry-picked samples, dose response (AID 488835); type: functional
T5 sequence (Q9H3R0 whole entry): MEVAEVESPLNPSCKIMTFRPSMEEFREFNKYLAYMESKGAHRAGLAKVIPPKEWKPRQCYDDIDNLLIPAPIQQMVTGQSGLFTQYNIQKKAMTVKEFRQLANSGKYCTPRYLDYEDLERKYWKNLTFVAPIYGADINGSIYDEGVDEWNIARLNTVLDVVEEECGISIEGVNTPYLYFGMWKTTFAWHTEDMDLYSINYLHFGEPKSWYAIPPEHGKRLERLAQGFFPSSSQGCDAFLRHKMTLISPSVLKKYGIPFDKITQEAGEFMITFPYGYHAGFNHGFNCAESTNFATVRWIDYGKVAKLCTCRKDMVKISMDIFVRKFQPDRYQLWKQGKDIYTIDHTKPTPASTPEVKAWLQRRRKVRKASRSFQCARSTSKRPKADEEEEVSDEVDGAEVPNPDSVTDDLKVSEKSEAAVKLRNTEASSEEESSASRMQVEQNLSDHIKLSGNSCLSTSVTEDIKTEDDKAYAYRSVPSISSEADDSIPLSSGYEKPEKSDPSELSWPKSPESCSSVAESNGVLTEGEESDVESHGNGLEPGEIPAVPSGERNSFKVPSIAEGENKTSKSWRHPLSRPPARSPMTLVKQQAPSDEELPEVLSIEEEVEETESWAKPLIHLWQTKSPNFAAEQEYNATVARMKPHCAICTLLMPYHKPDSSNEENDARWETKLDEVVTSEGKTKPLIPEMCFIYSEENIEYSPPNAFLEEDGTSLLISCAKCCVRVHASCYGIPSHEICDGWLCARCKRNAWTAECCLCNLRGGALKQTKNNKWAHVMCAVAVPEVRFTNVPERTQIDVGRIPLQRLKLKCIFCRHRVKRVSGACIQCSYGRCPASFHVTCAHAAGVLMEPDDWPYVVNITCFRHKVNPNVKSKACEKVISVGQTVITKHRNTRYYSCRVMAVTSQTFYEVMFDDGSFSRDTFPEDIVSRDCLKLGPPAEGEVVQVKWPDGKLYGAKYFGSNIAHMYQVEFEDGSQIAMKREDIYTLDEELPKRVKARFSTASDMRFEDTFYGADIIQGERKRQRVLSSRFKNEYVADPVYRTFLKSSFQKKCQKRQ

[25] = molecular target: T6, Mannose-6-phosphate isomerase (Homo sapiens, UniProt P34949); assay: MPI inhibition at elevated mannose 6-phosphate – biochemical, fluorescence intensity, high mannose 6-phosphate, primary screen (AID 1220)
T6 sequence (P34949 whole entry): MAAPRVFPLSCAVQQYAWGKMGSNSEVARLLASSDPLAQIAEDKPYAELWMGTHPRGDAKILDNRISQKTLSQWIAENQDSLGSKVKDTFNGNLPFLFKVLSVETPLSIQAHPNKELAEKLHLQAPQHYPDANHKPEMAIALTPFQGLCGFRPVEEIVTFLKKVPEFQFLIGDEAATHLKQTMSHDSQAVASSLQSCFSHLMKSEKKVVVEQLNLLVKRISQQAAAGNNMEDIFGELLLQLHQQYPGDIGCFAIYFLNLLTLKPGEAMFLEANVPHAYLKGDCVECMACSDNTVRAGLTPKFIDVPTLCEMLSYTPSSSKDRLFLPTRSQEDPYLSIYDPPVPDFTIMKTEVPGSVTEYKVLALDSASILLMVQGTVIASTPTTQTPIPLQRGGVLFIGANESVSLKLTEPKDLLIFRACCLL

[26] = molecular target: T6, Mannose-6-phosphate isomerase; assay: MPI enzyme activity inhibition – biochemical, fluorescence intensity, coupled assay, primary screen (AID 1209)
[27] = molecular target: DNA dC->dU-editing enzyme APOBEC-3G (Homo sapiens, UniProt Q9HC16); assay: Dose Response confirmation of small molecule APOBEC3G DNA Deaminase Inhibitors via a fluorescence-based single-stranded DNA deaminase assay. [Related pubchem assays (depositor defined):AID493012, AID493028]; type: functional
[28] = molecular target: Eukaryotic translation initiation factor 4E (Mus musculus, UniProt P63073); assay: blockers of eIF4G binding by eIF4E – biochemical, TR-FRET, dose response (AID 855); type: functional;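 also: potency for disrupting eIF4E binding to eIF4GI seen as loss of FRET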
Chain of Eukaryotic translation initiation factor 4E (P63073 whole entry): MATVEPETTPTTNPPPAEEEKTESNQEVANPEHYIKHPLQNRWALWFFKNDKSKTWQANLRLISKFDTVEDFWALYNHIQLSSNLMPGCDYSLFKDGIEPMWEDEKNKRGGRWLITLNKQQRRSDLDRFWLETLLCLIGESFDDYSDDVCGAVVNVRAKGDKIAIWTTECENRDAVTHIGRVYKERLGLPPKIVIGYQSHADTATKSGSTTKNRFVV

T1 sequence (Q00975 whole entry): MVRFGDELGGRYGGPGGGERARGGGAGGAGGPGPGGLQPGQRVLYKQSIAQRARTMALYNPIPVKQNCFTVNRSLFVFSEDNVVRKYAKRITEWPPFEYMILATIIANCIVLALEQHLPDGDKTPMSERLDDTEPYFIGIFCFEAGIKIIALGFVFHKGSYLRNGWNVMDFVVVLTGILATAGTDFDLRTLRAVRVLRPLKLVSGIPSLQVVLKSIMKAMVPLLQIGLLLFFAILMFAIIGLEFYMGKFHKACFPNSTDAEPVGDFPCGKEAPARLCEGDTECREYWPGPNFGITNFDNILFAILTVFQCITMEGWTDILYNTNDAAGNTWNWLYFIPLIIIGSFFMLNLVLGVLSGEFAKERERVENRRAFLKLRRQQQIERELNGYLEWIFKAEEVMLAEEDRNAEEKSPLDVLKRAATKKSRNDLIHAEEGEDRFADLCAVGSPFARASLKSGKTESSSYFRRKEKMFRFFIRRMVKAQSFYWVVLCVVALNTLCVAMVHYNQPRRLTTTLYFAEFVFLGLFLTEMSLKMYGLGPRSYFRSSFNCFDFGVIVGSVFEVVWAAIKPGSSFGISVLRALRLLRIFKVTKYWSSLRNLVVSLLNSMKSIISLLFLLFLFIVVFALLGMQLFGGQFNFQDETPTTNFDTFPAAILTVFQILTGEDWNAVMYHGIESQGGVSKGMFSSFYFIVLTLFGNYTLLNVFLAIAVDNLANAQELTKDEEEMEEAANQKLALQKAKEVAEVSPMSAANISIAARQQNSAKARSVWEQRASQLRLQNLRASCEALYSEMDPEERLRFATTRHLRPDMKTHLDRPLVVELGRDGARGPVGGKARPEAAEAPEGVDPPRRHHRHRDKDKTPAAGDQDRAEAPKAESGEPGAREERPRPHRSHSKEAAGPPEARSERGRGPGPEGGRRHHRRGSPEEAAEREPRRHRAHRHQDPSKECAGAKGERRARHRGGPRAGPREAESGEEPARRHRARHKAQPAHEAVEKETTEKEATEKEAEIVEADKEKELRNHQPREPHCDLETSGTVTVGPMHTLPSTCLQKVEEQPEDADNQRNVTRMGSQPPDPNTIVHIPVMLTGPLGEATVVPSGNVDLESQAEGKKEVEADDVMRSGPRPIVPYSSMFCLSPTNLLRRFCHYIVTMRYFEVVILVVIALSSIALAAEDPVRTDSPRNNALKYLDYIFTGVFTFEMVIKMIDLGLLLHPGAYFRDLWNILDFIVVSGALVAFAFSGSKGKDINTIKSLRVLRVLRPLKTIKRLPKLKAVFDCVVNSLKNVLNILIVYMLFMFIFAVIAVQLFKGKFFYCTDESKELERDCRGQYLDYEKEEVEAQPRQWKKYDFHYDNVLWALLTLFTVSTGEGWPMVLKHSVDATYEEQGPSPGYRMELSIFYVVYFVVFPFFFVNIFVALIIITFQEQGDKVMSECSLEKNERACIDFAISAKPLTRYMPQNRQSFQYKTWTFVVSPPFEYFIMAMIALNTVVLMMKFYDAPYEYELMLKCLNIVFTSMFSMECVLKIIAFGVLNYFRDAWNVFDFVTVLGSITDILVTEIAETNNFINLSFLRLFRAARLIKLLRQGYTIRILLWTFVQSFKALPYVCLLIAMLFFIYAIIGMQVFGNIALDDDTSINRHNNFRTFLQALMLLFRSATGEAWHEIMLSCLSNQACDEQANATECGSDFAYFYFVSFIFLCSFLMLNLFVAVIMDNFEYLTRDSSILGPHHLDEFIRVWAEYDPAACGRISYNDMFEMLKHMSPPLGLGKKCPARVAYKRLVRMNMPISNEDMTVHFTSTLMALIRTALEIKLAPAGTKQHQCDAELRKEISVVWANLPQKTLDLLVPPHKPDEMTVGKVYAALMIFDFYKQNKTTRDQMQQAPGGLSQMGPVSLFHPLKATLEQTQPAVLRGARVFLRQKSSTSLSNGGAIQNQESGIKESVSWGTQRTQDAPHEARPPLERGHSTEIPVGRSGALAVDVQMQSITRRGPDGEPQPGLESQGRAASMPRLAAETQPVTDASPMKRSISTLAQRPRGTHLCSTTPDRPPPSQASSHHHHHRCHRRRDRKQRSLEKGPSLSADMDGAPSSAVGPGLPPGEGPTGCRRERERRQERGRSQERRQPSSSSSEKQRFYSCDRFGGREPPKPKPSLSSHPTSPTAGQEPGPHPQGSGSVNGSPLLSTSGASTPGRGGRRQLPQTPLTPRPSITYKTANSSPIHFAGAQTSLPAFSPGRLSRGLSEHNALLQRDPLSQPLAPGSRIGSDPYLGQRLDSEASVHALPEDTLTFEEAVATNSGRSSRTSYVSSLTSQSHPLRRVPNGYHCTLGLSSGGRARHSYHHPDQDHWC
T1 sequence (Q02410 whole entry): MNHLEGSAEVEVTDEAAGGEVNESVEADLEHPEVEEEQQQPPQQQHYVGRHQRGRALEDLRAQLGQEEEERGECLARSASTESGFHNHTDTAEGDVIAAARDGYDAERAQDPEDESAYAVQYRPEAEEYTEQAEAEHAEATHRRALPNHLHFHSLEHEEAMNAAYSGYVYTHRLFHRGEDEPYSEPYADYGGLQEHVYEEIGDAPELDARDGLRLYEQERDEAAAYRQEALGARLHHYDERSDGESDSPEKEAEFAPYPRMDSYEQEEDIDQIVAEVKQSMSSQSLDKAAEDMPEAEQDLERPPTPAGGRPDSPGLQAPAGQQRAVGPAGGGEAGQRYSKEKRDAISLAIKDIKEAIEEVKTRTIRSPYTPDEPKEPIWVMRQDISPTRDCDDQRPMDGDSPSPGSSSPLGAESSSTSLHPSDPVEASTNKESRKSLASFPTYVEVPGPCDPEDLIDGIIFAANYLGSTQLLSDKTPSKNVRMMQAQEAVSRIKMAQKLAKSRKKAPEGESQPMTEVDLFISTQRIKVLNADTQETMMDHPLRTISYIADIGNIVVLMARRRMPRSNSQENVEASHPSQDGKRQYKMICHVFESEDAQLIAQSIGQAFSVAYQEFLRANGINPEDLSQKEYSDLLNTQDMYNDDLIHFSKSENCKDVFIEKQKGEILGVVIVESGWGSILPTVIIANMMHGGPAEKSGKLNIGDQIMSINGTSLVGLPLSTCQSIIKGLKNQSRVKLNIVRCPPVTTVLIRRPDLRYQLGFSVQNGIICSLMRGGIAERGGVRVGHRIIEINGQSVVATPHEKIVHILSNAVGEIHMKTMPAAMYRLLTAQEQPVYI

O=C1c2ccccc2-c2onc3ccc(NCCCn4ccnc4)c1c23
IC50 [1]: 3.18 µM (active)
IC50 (Beta-lactamase [2]): 5.38 µM (active)
IC50 (Bcl-2-related protein A1 [3]): > 100 µM (not active)
IC50 (Beta-lactamase [4]): 3.02 µM (active)
IC50 [5]: 22.2 µM (not active)
IC50 [6]: > 50 µM (inactive)
IC50 [7]: 1.19 µM (active)
IC50 (Bcl-2-related protein A1 [8]): > 100 µM (not active)

c1ccc2c(c1)OCC(CNc1ncnc3sccc13)O2 (stereo not given)
IC50 (Galanin receptor type 2): > 42 µM (not active)
EC50 [9]: > 180 µM (inactive)
EC50 [10]: > 150 µM (inactive)
IC50 (Protein Wnt-3a): 1.83 µM (active)
AC50 (INS1): 0.941 µM (active)
EC50 [11]: > 150 µM (inactive)
EC50 [12]: 0.27 µM (active)

COc1cc(NC(=O)CSc2nc3ccccc3cc2C)c(C(=O)O)cc1OC
IC50 (Aspartyl aminopeptidase): > 73.5 µM (not active)
IC50 (Procathepsin L): > 59.6 µM (not active)
IC50 (Leucine aminopeptidase): 1.57 µM (active)

COc1cccc(Cn2c(NCc3cccnc3)nc3c2c(=O)n(C)c(=O)n3C)c1
IC50 [13]: 0.425 µM (active)
EC50 (BJ [14]): 4.58 µM (inconclusive)
EC50 [15]: 12 µM (active)
EC50 (HEK293 [16]): > 20 µM (inactive)
EC50 [17]: 5.5 µM (active)
IC50 (HEK293 [18]): 14.6 µM (inactive)
EC50 (BJ [19]): > 150 µM (not active)
EC50 (BJ [20]): > 150 µM (inconclusive)
IC50 (HEK293 [21]): > 20 µM (inactive)
EC50 (HT-1080): > 50 µM (not active)
IC50 (HEK293 [22]): > 20 µM (inactive)
EC50 [23]: 39.5 µM (active)

COc1ccc(/N=c2\ssnc2Cl)cc1
AC50 [24]: 39.1 µM (active)
IC50 [25]: 21.6 µM (active)
IC50 [26]: 14.4 µM (active)
IC50 [27]: 9.96 µM (active)
IC50 [28]: 43.2 µM (inactive)
